Measurements from ChEMBL document CHEMBL2074133, “Effect of phenobarbital on the expression of bile salt and organic anion transporters of rat liver” (J Hepatol, 2001).

How the values were obtained:
Assay type in all cases: functional, organism-based, Sprague-Dawley
[1] = biological target: T1, Solute carrier organic anion transporter family member 1A4 (Rattus norvegicus, UniProt O35913); assay: (§1) TP_TRANSPORTER: Western in vivo SD rat, liver
T1 sequence (O35913 whole entry): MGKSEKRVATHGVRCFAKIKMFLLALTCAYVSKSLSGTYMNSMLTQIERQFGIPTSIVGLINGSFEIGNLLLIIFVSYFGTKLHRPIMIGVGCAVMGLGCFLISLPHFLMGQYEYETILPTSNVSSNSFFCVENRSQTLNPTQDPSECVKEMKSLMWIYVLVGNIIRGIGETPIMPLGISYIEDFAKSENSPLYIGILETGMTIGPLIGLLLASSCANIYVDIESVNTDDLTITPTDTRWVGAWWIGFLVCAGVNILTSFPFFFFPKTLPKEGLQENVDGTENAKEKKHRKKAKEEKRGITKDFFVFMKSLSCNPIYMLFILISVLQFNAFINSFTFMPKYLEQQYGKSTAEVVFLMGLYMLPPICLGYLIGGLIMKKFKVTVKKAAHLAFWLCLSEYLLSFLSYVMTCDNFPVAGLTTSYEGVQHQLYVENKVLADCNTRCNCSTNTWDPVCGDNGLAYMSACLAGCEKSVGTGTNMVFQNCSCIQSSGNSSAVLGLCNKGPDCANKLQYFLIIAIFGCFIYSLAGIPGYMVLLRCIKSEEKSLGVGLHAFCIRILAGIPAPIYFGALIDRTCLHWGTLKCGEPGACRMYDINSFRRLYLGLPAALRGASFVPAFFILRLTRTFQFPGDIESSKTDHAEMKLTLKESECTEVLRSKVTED

[2] = biological target: T2, Solute carrier organic anion transporter family member 1A1 (Rattus norvegicus, UniProt P46720); assay: as §1
T2 sequence (P46720 whole entry): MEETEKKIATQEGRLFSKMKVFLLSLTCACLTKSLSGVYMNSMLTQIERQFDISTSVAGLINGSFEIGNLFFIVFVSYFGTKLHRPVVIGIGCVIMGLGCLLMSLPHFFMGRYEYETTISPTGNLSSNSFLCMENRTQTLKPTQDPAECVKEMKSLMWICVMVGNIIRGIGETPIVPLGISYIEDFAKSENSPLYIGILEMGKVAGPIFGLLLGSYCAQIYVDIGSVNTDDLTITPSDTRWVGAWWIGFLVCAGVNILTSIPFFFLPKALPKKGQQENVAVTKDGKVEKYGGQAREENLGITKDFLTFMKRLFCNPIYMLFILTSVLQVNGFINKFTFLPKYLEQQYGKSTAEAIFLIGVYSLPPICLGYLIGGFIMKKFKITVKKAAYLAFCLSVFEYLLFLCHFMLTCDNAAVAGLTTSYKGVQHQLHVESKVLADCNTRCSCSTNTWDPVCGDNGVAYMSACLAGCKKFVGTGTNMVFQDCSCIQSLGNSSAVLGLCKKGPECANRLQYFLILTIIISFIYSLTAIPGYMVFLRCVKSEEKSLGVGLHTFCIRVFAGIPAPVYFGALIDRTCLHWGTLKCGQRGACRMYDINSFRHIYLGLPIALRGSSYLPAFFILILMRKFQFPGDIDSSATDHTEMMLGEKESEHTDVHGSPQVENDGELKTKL

[3] = biological target: T1, Solute carrier organic anion transporter family member 1A4; assay: (§2) TP_TRANSPORTER: Northern blot in vivo SD rat, liver
[4] = biological target: T2, Solute carrier organic anion transporter family member 1A1; assay: as §2

Structure (SMILES): CCC1(c2ccccc2)C(=O)NC(=O)NC1=O [PHENOBARBITAL]
- Activity [1]: inducer [+]
- Activity [2]: is not an inducer [-]
- Activity [3]: inducer [+]
- Activity [4]: is not an inducer [-]
